Data on two molecules can be found in US20190307749A1, “Mitochondria-Division Inhibitor 1 Protects Against Amyloid-B Induced Mitochondrial Fragmentation and Synaptic Damage in Alzheimer's Disease” (Texas Tech University System, priority 2018, published 2019).

Test [1] deals with mouse neuroblastoma (N2a) cells. Put plainly: Quantitative real-time RT-PCR: mRNA expression of mitochondrial dynamics, biogenesis and synaptic genes. Format: cell-based. Particulars: N2a cells + Aβ42; Mdivi1 given before (preventive) vs after (curative) Aβ42; mRNA and protein data. The method, then:
(§1) Tissue culture: The N2a cells were grown for 3 days in a serum-free medium (1:1 mixture of DMEM and OptiMEM, plus penicillin and streptomycin [Invitrogen, Carlsbad, Calif., USA]) until the cells developed neuronal processes.
Quantitative real-time RT-PCR: Using the reagent TriZol (Invitrogen), total RNA was isolated from cell pellets from the 5 N2a cell groups (FIG. 1). Using primer express software (Applied Biosystems, Carlsbad, Calif., USA), the inventors designed the oligonucleotide primers for the housekeeping genes 3-actin, GAPDH, mitochondrial structural genes, fission genes (Drp1, Fis1), fusion genes (MFN1, MFN2, Opa1), biogenesis genes (PGC1c, Nrf1, Nrf2, TFAM), and synaptic genes (synaptophysin and PSD95) (see Table 1 for primer sequences and amplicon sizes). Using SYBR-Green chemistry-based quantitative real-time RT-PCR, mRNA expressions of the above-mentioned genes were measured, as described by Manczak and Reddy.
The mRNA transcript level was normalized against β-actin and the GAPDH at each dilution. The standard curve was the normalized mRNA transcript level, plotted against the log-value of the input cDNA concentration at each dilution. To compare β-actin, GAPDH, and relative quantification was performed according to the (CT) method (Applied Biosystems). […] The ΔCT-value was obtained by subtracting the average β-actin CT value from the average CT-value of the synaptic mitochondrial ETC genes and the mitochondrial structural genes. The ΔCT of untreated cells was used as the calibrator. The fold change was calculated according to the formula 2^-(Δ ΔCT), where ΔΔCT is the difference between ΔCT and the ΔCT calibrator value. To determine the statistical significance of mRNA expression, the CT value differences between the untreated cells and other experimental groups of cells were used in relation to β-actin normalization. Statistical significance was calculated, using one-way ANOVA.

For test [2], the system named is N2a cell mitochondria. The experiment in a line: Mitochondrial ATP levels (luciferase bioluminescence). Format: cell-based, mouse. Particulars: N2a cells; Mdivi1 24 hrs or Aβ42 20 μM 6 hrs alone; vs untreated N2a cells. The procedure:
as §1
ATP levels: ATP levels were measured in N2a cell mitochondria from the treatment groups using an ATP determination kit (Molecular Probes). A bioluminescence assay was used, based on the reaction of ATP with recombinant firefly luciferase and its substract luciferin. Luciferase catalyzes the formation of light from ATP and luciferin. It is the emitted light that is linearly related to the concentration of ATP, which is measured with a luminometer. ATP levels were measured from mitochondrial pellets using a standard curve method.

Test [3] relates to mouse neuroblastoma (N2a) cells. Put plainly: Immunoblotting analysis of mitochondrial dynamics, biogenesis and synaptic proteins. In kind it is cell-based. Particulars: Mdivi1 24 hrs or Aβ42 20 μM 6 hrs alone, vs untreated N2a cells. The method, then:
as §1
Twenty g of protein was resolved from each group of cells on a 4-12% Nu-PAGE gel (Invitrogen). The resolved proteins were transferred to […] (Novax Inc., San Diego, Calif., USA) and were then incubated for 1 hour at room temperature with a blocking buffer (5% dry milk dissolved in a TBST buffer). The PVDF membranes were incubated overnight with primary antibodies (see Table 2) and washed 3 times with a TBST buffer at 10-minute intervals. They were then incubated for 2 hours with appropriate secondary antibodies, followed by 3 additional washes at 10-minute intervals. Mitochondrial and synaptic proteins were detected with cheminilumniscence reagents (Pierce Biotechnology, Rockford, Ill., USA), and the bands from immunoblots were quantified on a Kodak scanner, following manufacturer's instructions (ID Image Analysis Software, Kodak Digital Science, Kennesaw, Ga., USA), and the gel images were analyzed from gel images captured with a Kodak digital science CD camera. The lanes were marked to define the positions and specific regions of the bands. An ID fine-band command was used to locate and to scan the bands in each lane and to record the readings.

The test system of test [4] is N2a cells. The experiment in a line: H2O2 production (Amplex Red H2O2 assay). Particulars: Mdivi1 24 hrs or Aβ42 20 μM 6 hrs alone, vs untreated N2a cells. In kind it is cell-based, mouse. The method, then: as §1
Mitochondrial functional assays. H2O2 production: Using an Amplex® Red H2O2 assay kit (Molecular Probes, Eugene, Oreg., USA), H2O2 production was measured using cell pellets, as described in Manczak and Reddy. Briefly, H2O2 production was measured in the protein lysates prepared from cell pellets of control untreated N2a cells and 4 treatment groups (FIG. 1). A BCA protein assay kit (Pierce Biotechnology) was used to estimate protein concentration. The reaction mixture contained mitochondrial proteins (μg/μl), Amplex Red reagents (50 μM), horseradish peroxidase (0.1 U/ml), and a reaction buffer (1×). The mixture was incubated at room temperature for 30 minutes, followed by spectrophotometer readings of fluorescence (570 nm). Finally, H2O2 production was determined, using a standard curve equation expressed in nmol/μg mitochondrial protein.

The subject of test [5] is N2a cells. Put plainly: Lipid peroxidation assay (4-hydroxy-2-nonenol, HNE-His ELISA). Format: cell-based, mouse. Particulars: Mdivi1 24 hrs or Aβ42 20 μM 6 hrs alone, vs untreated N2a cells. The method, then:
as §1
Lipid peroxidation assay: Lipid peroxidates are unstable indicators of oxidative stress in the brain. The final product of lipid peroxidation is 4-hydroxy-2-nonenol (HNE), which was measured in the N2a cell lysates prepared from cell pellets of control and treatment groups. The inventors used an HNE-His ELISA kit (Cell BioLabs, Inc., San Diego, Calif., USA), as described in Manczak and Reddy. Briefly, freshly prepared protein as added to a 96-well protein binding plate and incubated overnight at 4° C. The protein then washed 3 times with a buffer. After the last wash, the anti-HNE-His antibody was added to the protein in the wells, incubated for 2 hours at room temperature, and then washed again 3 times. The samples were then incubated with a secondary antibody conjugated with peroxidase for 2 hours at room temperature, followed by incubation with an enzyme substrate. Optical density was measured (at 450 nm) to quantify the level of HNE.

In test [6] the test system is N2a cells. Put plainly: Cell viability (MTT assay). In kind it is cell-based, mouse. Particulars: Mdivi1 24 hrs or Aβ42 20 μM 6 hrs alone, vs untreated N2a cells. The procedure: as §1
The N2a cells from all 5 groups (4 treatment groups and 1 control group) were harvested, and their cell pellets were collected and used for quantitative real-time RT-PCR, immunoblotting analysis of mitochondrial and synaptic proteins, and mitochondrial functional assays for hydrogen peroxide production, lipid peroxidation, cytochrome c oxidase activity, and MTT determination. Isolated mitochondria from N2a cells from all 5 groups were used to determine mitochondrial ATP as described in Reddy et al..

The test system of test [7] is N2a cells. Put plainly: Cytochrome c oxidase activity. Format: cell-based, mouse. Particulars: Mdivi1 24 hrs or Aβ42 20 μM 6 hrs alone, vs untreated N2a cells. The method, then:
as §1
Cytochrome c oxidase activity: Cytochrome oxidase activity was measured in each of the 5 groups of N2a cells. Enzyme activity was assayed spectrophotometrically using a Sigma Kit (Sigma-Aldrich) following manufacturer's instructions. […] The decrease in absorbance at […] was recorded for 1-min reactions at 10-sec intervals. Cytochrome oxidase activity was measured according to the following formula: mU/mg total mitochondrial protein=(A/min sample−(A/min blank)×1.1 mg protein×21.84). The protein concentrations were determined following the BCA method.

Regarding `O=c1c2ccccc2[nH]c(=S)n1-c1cc(O)c(Cl)cc1Cl` [water soluble Mdivi1, 3-(2,4-dichloro-5-hydroxyphenyl)-2-thioxo-2,3-dihydroquinazolin-4(1H)-one], the “Protective effects against Aβ42, pre-treated vs post-treated cells” value in test [1] was “stronger in pre-treated cells than post-treated cells”.

As for “Aβ42: Aβ42 peptide purchased from Anaspec, used to induce mitochondrial and synaptic toxicity in N2a cells”, the “Mitochondrial ATP levels” value in test [2] is reported as “Significantly lower”. In test [3], the Drp1 protein level result is on record as “significantly higher”, the Fis1 protein level result is reported as “significantly higher”, the Mfn1 protein level entry is reported as “significantly lower” and the Mfn2 protein level result is “significantly lower”. For the same molecule, in test [3], the Nrf1 protein level result is on record as “Significantly lower”, the Nrf2 protein level result was “Significantly lower”, the Opa1 protein level entry is recorded as “significantly lower” and the PGC1α protein level entry was “Significantly lower”. In test [3], the PSD95 protein level entry is listed as “significantly lower” and the Synaptophysin protein level entry is recorded as “significantly lower”. Further, in test [3] (listed as Aβ), the PSD95 protein level entry is given as “significantly higher” and the Synaptophysin protein level entry is reported as “significantly higher”. The H2O2 levels entry in test [4] is “significantly increased”. Also, the “Lipid peroxidation levels (4-hydroxy-2-nonenol)” value in test [5] is given as “Significantly higher”. For the same molecule, the Cell viability entry in test [6] is “Significantly lower”. Also, in test [7], the Cytochrome oxidase activity entry is “Significantly lower”.
